Values of other authors, collected in publication PMC12315921 (Translational Vision Science & Technology, 2025).
Where two headings read alike, the source gives them in different places.

Legend:
PKM2 [1] = tested on: PKM2
PKM2 [2] = tested on: PKM2; remark: listed apart in the source

Kd (PKM2 [2]) | SMILES | AC50 of PK activation (PKM2 [1]; in the absence of FBP) | AC50 of PK activation (PKM2 [1]; in the presence of FBP) | AC50 (PKM2 [2])
– | Nc1cccc(S(=O)(=O)N2CCCN(S(=O)(=O)c3ccc4c(c3)OCCO4)CC2)c1 [DASA-58] | micromolar | low nanomolar | –
nanomolar range | O=C(COP(=O)(O)O)[C@@H](O)[C@H](O)[C@H](O)COP(=O)(O)O [FBP, fructose 1,6-biphosphate] | – | – | nanomolar range
